Test system: metastatic melanoma
Assay: Pilot clinical study: temozolomide chemotherapy timed relative to the CRP oscillation cycle
Format: in vivo, human
Description: A pilot clinical study was conducted on 12 patients with metastatic melanoma (median age 61; 4 female; 7 with M1c disease) at The Mayo Clinic, Rochester, Minn., USA headed by Dr Svetomir Markovic. Serial CRP measurements were taken every 2-3 days for 2 weeks. The CRP oscillation cycle was identified by analysis of the raw data without any computer aided modelling, and chemotherapy with temozolomide (200 mg/m2 for 5 days, every 28 days) was initiated. Patients were evaluated for clinical and immune response endpoints every 8 weeks until progression.

Cn1nnc2c(C(N)=O)ncn2c1=O [temozolomide]
time to progression (the other patients, treated post CRP-peak): < 5 months
remain progression-free (two patients with metastatic melanoma treated in the pre-peak section of the CRP cycle, temozolomide 200 mg/m2 for 5 days, every 28 days): > 2 years
